From BindingDB's records for doi:10.1021/jm00060a014 (Upjohn Laboratories, 1993)

Assay: Binding affinity against [3H]8-OH-DPAT-labeled 5-hydroxytryptamine 1A receptor sites in bovine hippocampus

CCCN1CCC2c3c(cccc3OC)CC[C@@H]21 (stereo partly drawn) [9-Methoxy-3-propyl-2,3,3a,4,5,9b-hexahydro-1H-benzo[e]indole]
Ki: 186 nM

COc1cccc2c1CC[C@@H]1[C@H]2CCN1CC1CC1 [(3aR,9bS)-3-Cyclopropylmethyl-6-methoxy-2,3,3a,4,5,9b-hexahydro-1H-benzo[e]indole]
Ki: > 1000 nM

CCCN1CCC2c3c(cccc3OC)CCC21 (stereo not drawn) [9-Methoxy-3-propyl-2,3,3a,4,5,9b-hexahydro-1H-benzo[e]indole]
Ki: 4.4 nM
